We go through 20 compounds from patent US20210070748A1, “INHIBITORS OF BRUTONS TYROSINE KINASE” (Pharmacyclics LLC, priority 2015, published 2021).

Assay [1] addresses T1, BTK-WT (Homo sapiens, UniProt Q06187).
T1 construct: purified from insect cells as a full-length construct containing an N-terminal 6X-His tag; His6 (N); made in house; host or cells: insect cells (baculovirus Sf21 in Method B)
Kind of assay: Btk in vitro inhibitory activity (one of Method A TR-FRET, Method B electrophoretic mobility shift, Method C radiometric filter binding). As to conditions: read-out: BTK-WT (IC50). Type of assay: biochemical. On the technique in general: Mobility shift assays separate free from complexed probe on a gel.

The target of assay [2] is T2, JAK3 (Homo sapiens, UniProt P52333).
T2 sequence (P52333 1-1124): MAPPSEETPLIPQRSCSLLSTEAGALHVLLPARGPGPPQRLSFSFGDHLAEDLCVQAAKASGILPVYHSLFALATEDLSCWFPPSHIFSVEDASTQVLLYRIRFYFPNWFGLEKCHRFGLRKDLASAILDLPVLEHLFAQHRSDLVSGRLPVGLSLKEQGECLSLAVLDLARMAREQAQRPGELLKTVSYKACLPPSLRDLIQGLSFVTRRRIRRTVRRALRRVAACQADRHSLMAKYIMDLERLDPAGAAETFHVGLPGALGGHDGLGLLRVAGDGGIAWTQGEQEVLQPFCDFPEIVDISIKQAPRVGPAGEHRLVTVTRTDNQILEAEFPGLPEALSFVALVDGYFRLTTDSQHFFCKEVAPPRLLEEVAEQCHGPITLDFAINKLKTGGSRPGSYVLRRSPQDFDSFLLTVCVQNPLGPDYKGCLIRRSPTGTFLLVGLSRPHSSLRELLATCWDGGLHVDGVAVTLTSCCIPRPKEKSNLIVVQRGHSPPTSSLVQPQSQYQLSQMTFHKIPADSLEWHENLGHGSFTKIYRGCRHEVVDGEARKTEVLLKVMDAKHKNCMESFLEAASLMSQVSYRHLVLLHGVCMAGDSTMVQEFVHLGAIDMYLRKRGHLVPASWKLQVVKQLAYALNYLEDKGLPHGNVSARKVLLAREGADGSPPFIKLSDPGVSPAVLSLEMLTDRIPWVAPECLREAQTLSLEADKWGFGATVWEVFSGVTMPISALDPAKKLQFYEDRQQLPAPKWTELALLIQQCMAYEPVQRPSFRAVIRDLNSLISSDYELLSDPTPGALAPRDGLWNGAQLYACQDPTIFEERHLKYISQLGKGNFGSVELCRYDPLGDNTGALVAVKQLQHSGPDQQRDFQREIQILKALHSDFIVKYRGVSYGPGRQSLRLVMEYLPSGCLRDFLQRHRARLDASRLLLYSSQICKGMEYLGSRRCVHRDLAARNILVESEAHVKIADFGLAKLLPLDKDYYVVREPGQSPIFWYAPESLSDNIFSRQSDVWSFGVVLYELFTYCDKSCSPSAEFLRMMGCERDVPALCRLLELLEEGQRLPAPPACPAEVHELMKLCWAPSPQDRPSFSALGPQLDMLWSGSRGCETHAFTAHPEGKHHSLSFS
Put plainly: Inhibition of a panel of kinases, in vitro HotSpot kinase assay: JAK3. Type of assay: biochemical. To be noted: 1 μM ATP, read-out: JAK3 (IC50).

pIC50: −log10 of the molar value. Where two headings read alike, the source gives them in different places.

T1 sequence (Q06187 whole entry): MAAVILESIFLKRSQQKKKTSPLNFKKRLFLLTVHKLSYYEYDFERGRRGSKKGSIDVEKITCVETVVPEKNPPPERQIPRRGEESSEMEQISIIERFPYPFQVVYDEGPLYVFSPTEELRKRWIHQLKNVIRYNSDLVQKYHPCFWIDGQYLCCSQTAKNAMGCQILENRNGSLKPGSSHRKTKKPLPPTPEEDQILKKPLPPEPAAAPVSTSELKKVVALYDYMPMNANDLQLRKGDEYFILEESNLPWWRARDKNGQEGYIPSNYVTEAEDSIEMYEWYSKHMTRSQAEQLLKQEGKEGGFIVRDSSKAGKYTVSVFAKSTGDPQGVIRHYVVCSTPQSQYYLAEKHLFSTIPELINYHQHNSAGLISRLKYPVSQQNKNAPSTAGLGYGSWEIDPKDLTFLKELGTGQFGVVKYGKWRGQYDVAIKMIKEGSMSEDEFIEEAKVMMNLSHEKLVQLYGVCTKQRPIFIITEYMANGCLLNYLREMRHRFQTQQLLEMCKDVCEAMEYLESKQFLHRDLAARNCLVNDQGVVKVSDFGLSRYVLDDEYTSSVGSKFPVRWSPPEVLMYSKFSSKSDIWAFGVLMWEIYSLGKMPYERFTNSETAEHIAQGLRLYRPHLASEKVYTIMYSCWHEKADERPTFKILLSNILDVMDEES

For orientation: pIC50 means the negative decadic logarithm of the IC50, by convention in mol/L. With `Cc1cc(Nc2nc(N3CCCC(CNC(=O)N(C)C)C3)cnc2C(N)=O)sn1` (stereo not shown) [Example A-78, 5-(3-{[(dimethylcarbamoyl)amino]methyl}piperidin-1-yl)-3-[(3-methyl-1,2-thiazol-5-yl)amino]pyrazine-2-carboxamide], the pIC50 is no less than 7.00 in assay [1] (Table 10, Formula A-I) and 5.00 to 6.00 in assay [2] (Table 10, Formula A-I).
In the same order, the values of `Cc1cc(Nc2nc(N3CCC[C@@H](N(C)C(=O)c4ccc(C(C)C)cc4)C3)cnc2C(N)=O)sn1` [Example A-40, 3-[(3-methyl-1,2-thiazol-5-yl)amino]-5-[(3R)-3-[N-methyl4-(propan-2-yl)benzamido]piperidin-1-yl]pyrazine-2-carboxamide] are no less than 7.00 and less than 5.00.
Taken in the same sequence, the figures for `Cc1cc(Nc2nc(N3CCC[C@H](NC(=O)c4ccc(N(C)C)cc4)[C@H]3CO)cnc2C(N)=O)sn1` [Example A-70, 5-[(2S,3S)-3-[4-(dimethylamino)benzamido]-2-(hydroxymethyl)piperidin-1-yl]-3-[(3-methyl-1,2-thiazol-5-yl)amino]pyrazine-2-carboxamide] were 6.00 to 7.00 and less than 5.00.
In the same order, the values of `Cc1cc(Nc2nc(N3CCCC(CNC(=O)c4ccccc4)C3)cnc2C(N)=O)sn1` (stereo not shown) [Example A-79, 3-[(3-methyl-1,2-thiazol-5-yl)amino]-5-{3-[(phenylformamido)methyl]piperidin-1-yl}pyrazine-2-carboxamide] are no less than 7.00 and 5.00 to 6.00.
Consider `Cc1cc(Nc2nc(N3CCC[C@@H](NC(=O)c4ccc(N(C)C)cc4)[C@H]3C)cnc2C(N)=O)sn1` [Example A-55, 5-[(2R,3R)-3-[4-(dimethylamino)benzamido]-2-methylpiperidin-1-yl]-3-[(3-methyl-1,2-thiazol-5-yl)amino]pyrazine-2-carboxamide], for which the pIC50 is no less than 7.00 in assay [1] (Table 10, Formula A-I) and 6.00 to 7.00 in assay [2] (Table 10, Formula A-I).
`Cc1cc(Nc2nc(NC3CCC(NC(=O)c4ccccc4)CC3)cnc2C(N)=O)sn1` (stereo not shown) [Example B-4, 5-[(4-benzamidocyclohexyl)amino]-3-[(3-methyl-1,2-thiazol-5-yl)amino]pyrazine-2-carboxamide]: the negative logarithm of the IC50 (pIC50) in assay [1] (Table 11, Formula B-I) was no less than 7.00; in assay [2] (Table 11, Formula B-I) it was greater than 7.00.
Consider `Cc1cc(Nc2nc(N3CCC[C@@H](NC(=O)c4ccc(C(C)C)cc4)[C@H]3C)cnc2C(N)=O)sn1` [Example A-56, 3-[(3-methyl-1,2-thiazol-5-yl)amino]-5-[(2R,3R)-2-methyl-3-[4-(propan-2-yl)benzamido]piperidin-1-yl]pyrazine-2-carboxamide], for which the pIC50 in assay [1] (Table 10, Formula A-I) is no less than 7.00; in assay [2] (Table 10, Formula A-I), 5.00 to 6.00.
In the same order, the values of `Cc1cccc(C(=O)N[C@@H]2CCCN(c3cnc(C(N)=O)c(Nc4ccc(C5CCN(C6CCCC6)CC5)cc4)n3)C2)c1` [Example A-8, 3-{[4-(1-cyclopentylpiperidin-4-yl)phenyl]amino}-5-[(3R)-3-(3-methylbenzamido)piperidin-1-yl]pyrazine-2-carboxamide] are no less than 7.00 and 6.00 to 7.00.
Taken in the same sequence, the figures for `Cc1cc(Nc2nc(N3CCC[C@@H](NC(=O)c4ccc(N(C)C)cc4)[C@H]3CO)cnc2C(N)=O)sn1` (stereo in doubt) [Example A-68, 5-[(2S,3R)-3-[4-(dimethylamino)benzamido]-2-(hydroxymethyl)piperidin-1-yl]-3-[(3-methyl-1,2-thiazol-5-yl)amino]pyrazine-2-carboxamide] were 6.00 to 7.00 and less than 5.00.
Taken in the same sequence, the figures for `C[C@@H]1[C@H](NC(=O)c2ccc(C3CC3)cc2F)CCCN1c1cnc(C(N)=O)c(Nc2ccc(N3CCN(C)CC3)cc2)n1` [Example A-81, 5-[(2R,3R)-3-(4-cyclopropyl-2-fluorobenzamido)-2-methylpiperidin-1-yl]-3-{[4-(4-methylpiperazin-1-yl)phenyl]amino}pyrazine-2-carboxamide] were no less than 7.00 and 5.00 to 6.00.
For `CN(C)c1ccc(C(=O)N[C@H]2CC[C@H](Nc3cnc(C(N)=O)c(Nc4ccc5ncccc5c4)n3)CC2)cc1` [Example B-2], the pIC50 in assay [1] (Table 11, Formula B-I) is 6.00 to 7.00; in assay [2] (Table 11, Formula B-I), less than 5.00.
With `CC(C)c1ccc(C(=O)N[C@@H]2CCCN(c3cnc(C(N)=O)c(Nc4ccccn4)n3)C2)cc1` [Example A-71, 5-[(3R)-3-[4-(propan-2-yl)benzamido]piperidin-1-yl]-3-[(pyridin-2-yl)amino]pyrazine-2-carboxamide], the pIC50 was 5.00 to 6.00 in assay [1] (Table 10, Formula A-I) and 5.00 to 6.00 in assay [2] (Table 10, Formula A-I).
Take `Cc1cc(Nc2nc(N3CCC[C@@H](NC(=O)c4ccc(N(C)C)cc4)[C@@H]3CO)cnc2C(N)=O)sn1` [Example A-69, 5-[(2R,3R)-3-[4-(dimethylamino)benzamido]-2-(hydroxymethyl)piperidin-1-yl]-3-[(3-methyl-1,2-thiazol-5-yl)amino]pyrazine-2-carboxamide]: the pIC50 was 6.00 to 7.00 in assay [1] (Table 10, Formula A-I) and less than 5.00 in assay [2] (Table 10, Formula A-I).
As to `Cc1cc(Nc2nc(N(C)[C@H]3CCCN(C(=O)c4ccc(N(C)C)cc4)C3)cnc2C(N)=O)sn1` [Example C-9, 5-{[(3S)-1-[4-(dimethylamino)benzoyl]piperidin-3-yl](methyl)amino}-3-[(3-methyl-1,2-thiazol-5-yl)amino]pyrazine-2-carboxamide], the pIC50 is 5.00 to 6.00 in assay [1] (Table 12, Formula C-I) and less than 5.00 in assay [2] (Table 12, Formula C-I).
Take `Cc1cc(Nc2nc(N3CCC[C@@H](NC(=O)c4ccc(C5CC5)c(F)c4)C3)cnc2C(N)=O)sn1` [Example A-73, 5-[(3R)-3-(4-cyclopropyl-3-fluorobenzamido)piperidin-1-yl]-3-[(3-methyl-1,2-thiazol-5-yl)amino]pyrazine-2-carboxamide]: the pIC50 in assay [1] (Table 10, Formula A-I) is no less than 7.00; in assay [2] (Table 10, Formula A-I), 5.00 to 6.00.
Regarding `Cc1cc(Nc2nc(NC3CCC(NC(=O)N(C)C)CC3)cnc2C(N)=O)sn1` (stereo not shown) [Example B-3, 5-({4-[(dimethylcarbamoyl)amino]cyclohexyl}amino)-3-[(3-methyl-1,2-thiazol-5-yl)amino]pyrazine-2-carboxamide], the pIC50 in assay [1] (Table 11, Formula B-I) was no less than 7.00; in assay [2] (Table 11, Formula B-I), greater than 7.00.
In the case of `CC(C)c1ccc(C(=O)N[C@@H]2CCCN(c3cnc(C(N)=O)c(Nc4ccc(CN(C)C)cc4)n3)C2)cc1` [Example A-83, 3-({4-[(dimethylamino)methyl]phenyl}amino)-5-[(3R)-3-[4-(propan-2-yl)benzamido]piperidin-1-yl]pyrazine-2-carboxamide], the pIC50 in assay [1] (Table 10, Formula A-I) was no less than 7.00; in assay [2] (Table 10, Formula A-I), 5.00 to 6.00.
Taken in the same sequence, the figures for `Cc1cc(Nc2cc(N3CCC[C@@H](NC(=O)c4ccc(C(C)C)cc4)C3)cnc2C(N)=O)sn1` [Example A-63, 3-[(3-methyl-1,2-thiazol-5-yl)amino]-5-[(3R)-3-[4-(propan-2-yl)benzamido]piperidin-1-yl]pyridine-2-carboxamide] were no less than 7.00 and less than 5.00.
Taken in the same sequence, the figures for `Cc1cc(Nc2nc(N3CCC[C@@H](NC(=O)c4ccc(C5CC5)cc4F)[C@H]3C)cnc2C(N)=O)sn1` [Example A-74, 5-[(2R,3R)-3-(4-cyclopropyl-2-fluorobenzamido)-2-methylpiperidin-1-yl]-3-[(3-methyl-1,2-thiazol-5-yl)amino]pyrazine-2-carboxamide] were no less than 7.00 and 5.00 to 6.00.
Taken in the same sequence, the figures for `CC(C)c1ccc(C(=O)N[C@@H]2CCCN(c3cnc(C(N)=O)c(Nc4ccccc4)n3)C2)cc1` [Example A-65, 3-(phenylamino)-5-[(3R)-3-[4-(propan-2-yl)benzamido]piperidin-1-yl]pyrazine-2-carboxamide] were 5.00 to 6.00 and less than 5.00.
